What is called solubility is the dissolved amount per volume that the medium holds. Read a high solubility as much dissolved substance.

The values below come from paper PMC9189929, “Synthesis, Screening and Characterization of Novel Potent Arp2/3 Inhibitory Compounds Analogous to CK-666” (Frontiers in Pharmacology, 2022).

Data set [1] deals with sea urchin embryos. Details: method as in Sepúlveda-ramírez et al., 2018. Conditions: 100 μM; ref Sepúlveda-ramírez et al., 2018; cited from earlier work.
For data set [2], the system named is Arp2/3. Conditions: introduction statement, no reference given; read-out: IC50 of inhibition of Arp2/3 activation; cited from earlier work.
Data set [3] deals with sea urchin embryos. The data set is described as follows: Sea urchin embryo development assay. The class given is in vivo, Paracentrotus lividus. As for the experimental part: The procedure was described in detail in [Semenova et al., 2018]. Briefly, adult sea urchins, Paracentrotus lividus L (Echinidae), were collected from the Mediterranean Sea on the Cyprus coast and kept in an aerated seawater tank. Gametes were obtained by intracoelomic injection of 0.5 M KCl. Eggs were washed with filtered seawater and fertilized by adding drops of diluted sperm. Embryos were cultured at room temperature under gentle agitation with a motor-driven plastic paddle (60 rpm) in filtered seawater. […] For treatment with test compounds, 5 ml aliquots of embryo suspension were transferred to six-well plates and incubated at a concentration of 1,000–2,000 embryos/ml. For images, sedimented embryos were concentrated in the center of the well by gentle rotation of the culture plate, and 200 μl aliquots containing several hundred embryos were used to take pictures (up to 20 images from different fields). Embryos selected for Figure 4 were representative of the population.
(§1) Stock solutions of compounds were prepared in DMSO at 50–250 mM concentration followed by a 10-fold dilution with 96% EtOH. This procedure enhanced the solubility of the test compounds in the salty seawater. Maximal tolerated concentrations of DMSO and EtOH in the assay were determined to be 0.05 and 1%, respectively. Higher concentrations of either DMSO (>0.1%) or EtOH (>1%) caused nonspecific alterations and retardation of the sea urchin embryo development independent of the treatment stage. Maximum solubility of compounds 15, 59, 69, and 71 was about 5–20 mM in seawater, since visible crystals formed at higher concentrations.
The effects were assessed after exposure of fertilized eggs (8–15 min post fertilization, 45–55 min before the first mitotic cycle completion) to 2-fold decreasing concentrations of the compound. Embryonic development was monitored until the beginning of active feeding at four-arm pluteus stage (33–36 h postfertilization). Developmental abnormalities were estimated quantitatively as minimal effective concentration (MEC), resulting in inhibition of archenteron elongation or skeletal spicule formation.

Data set [4] deals with T1, Arp2/3 (Bos taurus, UniProt A7MB62+P61157).
T1 construct: purchased Cytoskeleton, Inc
Kind of data set: Pyrene-actin polymerization assay. In kind it is biochemical, bovine. Conditions: 20 nM Arp2/3, 250 nM N-WASP VCA; for IC50: 1.5 μM actin (10% pyrenyl-labeled), read-out: IC50 of Arp2/3-mediated actin polymerization; for Arp2/3 inhibition reached at saturation: 1.5 μM actin. How it is done: Actin was purified from rabbit muscle and was pyrenyl-labeled ([Carlier et al., 1984]; [Malm, 1984]). Arp2/3 was from Cytoskeleton, Inc. VCA domain of N-WASP was purified as previously described ([Clainche et al., 2003]). Pyrene-actin polymerization assays were performed as previously ([Romero et al., 2007]). Briefly, CaATP-actin was converted into MgATP-actin in (5 mM Tris, 0.2 mM ATP, 0.1 mM CaCl2, 1 mM DTT, 1 mM MgCl2, and 0.2 mM EGTA, pH 7.6) and kept on ice for no more than 1 h. Actin polymerization was monitored in (5 mM Tris, 50 mM KCl, 0.2 mM ATP, 0.1 mM CaCl2, 1 mM DTT, 1 mM MgCl2, 0.2 mM EGTA, pH 7.6) in the presence of 2% DMSO alone or 2% DMSO containing the appropriated compound concentration. The increase in fluorescence of 10% pyrenyl-labeled actin was monitored using a Safas spectrofluorimeter (λexc = 366 nm, λem = 407 nm). The maximum rate of actin polymerization was derived from the maximum slope of the polymerization curve multiplied by [total polymer]/(RFUmax—RFUmin) [total polymer] is the total actin minus the critical concentration (0.1 μM) and RFU, Relative Fluorescence Unit. The maximum elongation rates of actin polymerization were plotted as a function of the concentration of the different compounds. For CK-666, 59, 69 and 71, curves were fitted with the following equation to determine the IC50. Mrate= Rmax−Rmax−Rmin/1+IC50/(Compound Conc.) where Mrate is the measured maximum rate of actin polymerization at a given compound concentration, Rmax is the maximum rate of actin polymerization with no compound, and Rmin is the maximum rate of actin polymerization at saturating concentration of compound.
The curve of compound 15 was fitted with a linear decay. The IC50 was determined at half inhibition of actin polymerization.

Data set [5] deals with B16-F1 cells. The data set is described as follows: Lamellipodium formation in B16-F1 cells (cortactin immunofluorescence). In kind it is cell-based, mouse. How it is done:
Lyophilized compounds were resuspended with fresh DMSO from sealed vials (cell biology grade). Compounds, stored at +4°C, were used within a week. B16-F1 cells were seeded onto glass coverslips coated for 1 h with 25 μg/ml laminin (Sigma) in (50 mM Tris, 150 mM NaCl, pH 7.4). […] Cell were then processed for immunofluorescence.
Cells were fixed in 3.2% PFA on PBS, then quenched with 50 mM NH4Cl and permeabilised with 0.5% Triton X-100. After blocking in 2% BSA cells were incubated with antibodies (1–5 μg/ml for the primary, 5 μg/ml for the secondary). Total actin in cells was visualized by phalloidin staining. Nuclei were stained with 0.3 μg/ml DAPI (Roche). Coverslips were mounted in Dako Fluorescence Mounting Medium (Agilent). For immunofluorescence, ARPC2 rabbit polyclonal antibody (Millipore, 07–227), Cortactin mouse monoclonal 4F11 (Millipore, 05–180) were used. Secondary goat anti-mouse and anti-rabbit antibodies conjugated with Alexa Fluor 555 and 647 respectively were from Life Technologies. Phalloidin conjugated with Alexa Fluor 488 was from Tebu-bio.
(§2) Image analysis was performed in ImageJ or FIJI software. To measure wound healing, boundaries of the wound were drawn manually at different time points, then wound size was measured.

The next data set relates to fish keratocytes. Details: method as in Nolen et al., 2009. Conditions: ref Nolen et al., 2009; cited from earlier work.
The subject of a further data set is MCF10A cells. The data set is described as follows: EdU incorporation / cell cycle progression screen in MCF10A cells. In kind it is cell-based, human. Conditions: for IC50: Homo sapiens, MCF-10A, 18 h treatment, rough values from Figure 1 graphs, read-out: IC50 (concentration required for 50% decrease of EdU-positive cells); for Outcome of EdU incorporation screen: 0.025 to 100 μM. How it is done: For cell cycle progression using EdU, MCF10A cells were seeded in 384-well plates at a density of 800 cells per well. […] EdU from kit C10337 (ThermoFischer Scientific, Waltham, MA, United States) was then added to the cells at 10 μM and incubated for 2.5 h. Cells were fixed in 4% paraformaldehyde for 30 min at room temperature. Click-iT reaction was performed for 1 h at room temperature, protected from light, with 5 µM Alexa Fluor 488 azide in (100 mM Tris, 1 mM CuSO4, 50 mM Ascorbic Acid, pH 8.5). Nuclei were counterstained with Hoechst 33,342 (Thermo Fisher Scientific). Imaging and analysis were performed using the ImageXpress Micro XL High-Content Screening System (Molecular Devices LLC, San Jose, CA, United States). IC50 values were determined by sigmoidal curve fitting using GraphPad Prism six software.

In data set [6] the test system is B16-F1 cells. The data set is described as follows: Wound healing (cell migration) of B16-F1 cells. The class given is cell-based, mouse. As for the experimental part:
For the wound healing, B16-F1 cells were seeded onto 8-well Ibidi dishes coated with laminin, and grown to confluence. Wounds in the cell monolayer were obtained by scratching the monolayer with a pipet tip. Detached cells were immediately washed away and new medium containing the various compounds was added. Cells were then used for videomicroscopy.
Videomicroscopy was performed on an inverted Axio Observer microscope (Zeiss) equipped with a Pecon Zeiss incubator XL multi S1 RED LS (Heating Unit XL S, Temp module, CO2 module, Heating Insert PS and CO2 cover), Definite focus module and a Hamamatsu camera C10600 Orca-R2. Phase contrast images were taken every 30 min for 24 h using the 10X/0.25 Plan-Apochromat air objective. For immunofluorescence, slides were observed and imaged with the 63X/1.4 Plan-Apochromat oil objective. Fluorophores were excited with the HBO 100 W lamp (Osram) installed in the HXP 120 Metal halide fluorescence light source (Zeiss).
as §2

Data set [7] concerns B16-F1 cells. Kind of data set: Cell viability (MTS) of B16-F1 cells. The class given is cell-based, mouse. Conditions: 100 μM, 4 h. As for the experimental part:
Cell viability was assessed using the CellTiter 96® AQueous One Solution Cell Proliferation kit (Promega) on a Multiscan Spectrum spectrophotometer (Thermo LifeSciences), with absorbance read at 490 nm.

Data set [8] in a line: Maximum solubility in seawater. Conditions: saline or isotonic, kinetic from dmso stock, visible crystals formed at higher concentrations. The class given is physicochemical. How it is done:
as §1

[9] abbreviates: observed up to four-arm mid-pluteus stage.
Where [10] appears, read: treated at zygote stage, monitored to four-arm pluteus.

Each structure is given as a SMILES string. Converted amounts (≈) assume the structure as drawn.

Take `Cc1[nH]c2ccccc2c1CCNC(=O)c1ccccc1F` [CK-666, 2-Fluoro-N-[2-(2-methyl-1H-indol-3-yl)ethyl]benzamide]: in the data set with sea urchin embryos [1], the “Effect on PMC migration and spiculogenesis” value is “alters proper migration of PMC and formation of ventrolateral clusters with ensuing inhibition of spiculogenesis”. The IC50 in the data set with Arp2/3 [2] is around 50 µM. For the same compound, the Developmental phenotype entry in the data set on sea urchin embryos [3] (100 μM, 22°C) is reported as “Defective gastrulation”. Moreover, in the data set with sea urchin embryos [3] (setting [9]), the “Effect on archenteron elongation” value is “inhibited elongation of the archenteron at approximately half-size”; the “Effect on primary mesenchyme cell (PMC) migration” value was “altered PMC migration resulting in the lack of ventrolateral clusters and spicules”. In the data set with sea urchin embryos [3] (setting [10]), the “Minimum effective concentration, Inhibition of Archenteron elongation” value turned out to be 50 µM and the “Minimum effective concentration, Inhibition of Spicule formation” value was 25 µM. In addition, in the data set with sea urchin embryos [3] (up to 20–50 μM), the “Effect on cleavage and embryo spinning (antimitotic microtubule destabilizing effects)” value is “did not affect cleavage and did not induce embryo spinning”. At Arp2/3 [4], the IC50 is 23 µM and the “Arp2/3 inhibition reached at saturation” value was 78%. The “Inhibition of lamellipodium formation” value in the data set on B16-F1 cells [5] (100 μM, 1 h) is reported as “blocked lamellipodium formation almost completely”. In addition, the “Inhibition of migration of fish keratocytes” value in the data set on fish keratocytes was “unable to inhibit the migration of fish keratocytes”. Moreover, the IC50 with MCF10A cells was 56.3 µM. Also, in the data set on B16-F1 cells [6] (100 µM), the “Inhibition of wound healing” value is given as “inhibits wound healing”.
Regarding `Cc1[nH]c2ccc(OC(F)(F)F)cc2c1CCNC(=O)c1ccc(S(=O)(=O)N(CCCl)CCCl)cc1` [Compound 52, 4-{[Bis(2-chloroethyl)amino]sulfonyl}-N-{2-[2-methyl-5-(trifluoromethoxy)-1H-indol-3-yl]ethyl}benzamide], the “Toxicity to B16-F1 cells (viability, MTS)” value in the data set with B16-F1 cells [7] is listed as “reduced the cell population by half or more”. In addition, in the data set on MCF10A cells, the “Outcome of EdU incorporation screen” value is given as “scored positive” and the IC50 is 3.17 µM.
In the same order, the values of `Cc1[nH]c2ccc(F)cc2c1CCNC(=O)c1cc(S(=O)(=O)N(C)C)c(Cl)cc1Cl` [Compound 64, 2,4-Dichloro-5-[(dimethylamino)sulfonyl]-N-[2-(5-fluoro-2-methyl-1H-indol-3-yl)ethyl]benzamide] are “reduced the cell population by half or more”, “scored positive” and 6.66 µM.
Regarding `Cc1[nH]c2c(C(F)(F)F)cccc2c1CCNC(=O)c1cc(S(=O)(=O)NC2CC2)c(Cl)cc1Cl` [Compound 71, 2,4-Dichloro-5-[(cyclopropylamino)sulfonyl]-N-{2-[2-methyl-7-(trifluoromethyl)-1H-indol-3-yl]ethyl}benzamide], the solubility in [8] is 5 to 20 µM (≈ 2.67 to 10.7 µg/mL). Besides, the figures for the Developmental abnormality entry in the data set on sea urchin embryos [3] (5 μM) and in the data set with sea urchin embryos [3] (20 μM) were “suppressed plutei growth” and “defective gastrulation was observed”, respectively. Also, in the data set with sea urchin embryos [3] (setting [10]), the “Minimum effective concentration, Systemic Toxicity” value was 5 µM. Further, the IC50 at Arp2/3 [4] worked out at 539 µM; in the data set on MCF10A cells, 3.58 µM. Further, the “Arp2/3 inhibition reached at saturation” value on Arp2/3 [4] is on record as “saturation was not reached”. Besides, the “Dose-dependent inhibition of lamellipodium formation, potency relative to CK-666” value in the data set on B16-F1 cells [5] (dose-dependent assay (Figure 2D)) is on record as “significantly more potent than CK-666”. Further, the “Outcome of EdU incorporation screen” value in the data set with MCF10A cells is recorded as “scored positive”. Also, the “Cell rounding and detachment in wound healing assay” value is on record as “still induced cell rounding” in the data set with B16-F1 cells [6] (25 µM) and “induced cell rounding followed by detachment from the substrate” in the data set on B16-F1 cells [6] (100 µM). Also, the “Inhibition of cell migration (wound healing) compared with 100 µM CK-666” value in the data set with B16-F1 cells [6] (compound at 25 µM) is given as “inhibited cell migration even more effectively”.
